What was measured:
cortical slices = test: [3H]GABA release from prefrontal cortical slices; format: cell-based, mice; conditions: 20 mM KCl
Protocol: FIG. 2A is a line graph of [^3H]GABA release fraction/total fraction versus time (mins). Cortical slices were preloaded with [^3H]GABA for 30 min in the presence of b-alanine (1 mM), an inhibitor of [^3H]GABA uptake by glial cells, aminooxyacetic acid (0.1 mM), an inhibitor of GABA degradation, and nipecotic acid (1 mM), an inhibitor of the GABA transporter in neurons. Basal and depolarization (20 mM KCl)-evoked release of [^3H]GABA were monitored sequentially. Controls (open circles) and NRG1 (closed circles). FIG. 2B is a line graph of percent [^3H]GABA release versus NRG1 concentration (nM). Basal (open circles) K+ evoked (closed circles). […] FIG. 2D is a line graph of cumulative counts versus mIPSC amplitude (pA). Controls (open circles) and NRG1 (closed circles). FIG. 2E is a line graph of cumulative counts versus mIPSC interevent interval (ms). Controls (open circles) and NRG1 (closed circles). FIG. 2F is a bar graph of mIPSC (percent) in control and NRG1 treated pyramidal neurons in prefrontal cortical slices (n=12). Amplitude (clear) and Frequencies (hatched). FIG. 2G is a bar graph of percent eIPSC amplitude in prefrontal cortical slices treated with NRG1 versus control or washout. n=12, *p<0.01. Representative eIPSCs of control, NRG1-treated, or NRG1-treated/washed slices are shown on top. FIG. 2H is a line graph of percent eIPSC amplitude versus NRG1 (nM). n=6, *p<0.05, **p<0.01. FIG. 2I is a bar graph of K^+ evoked [^3H]GABA release (percent) (left axis, clear rectangles) and eIPSC amplitude (percent) (right axis, hatched rectangles) in prefrontal cortical slices treated with NRG1, denature NRG1, or BDNF. n=8 for [^3H]GABA release; for eIPSCs, n=6 for control, NRG1, and denatured NRG1, and n=4 for BDNF. *p<0.05, #p<0.05; **p<0.05, ##<0.01.
NRG1 may regulate GABAergic neurotransmission. To test this hypothesis, the effects of NRG1 on GABA release in cortical slices were determined by both biochemical and electrophysiological approaches. Basal [^3H]GABA release was low, at a rate of 3.75±0.35% (n=8) of total radioactivity per 10 min (FIG. 2A). Treatment of slices with 20 mM KCl, a condition known to depolarize neurons, increased [^3H]GABA release by 2.5-3.5 folds within 10 min (FIG. 2A). NRG1 had no effect on basal [^3H]GABA release; by contrast, it increased depolarization-evoked GABA release in a dose-dependent manner (FIG. 2B). […] Furthermore, the NRG regulation remained unchanged in the presence of antagonists of metabotropic glutamate receptors, cholinergic receptors, serotonin receptors, adrenergic receptors and/or dopamine receptors. As a control, BDNF decreased depolarization-evoked GABA release and eIPSCs in cortical slices, in agreement with earlier studies (Canas, et al., Brain Res, 1016:72-78 (2004); Frerking, et al., J Neurophysiol, 80:3383-3386 (1998)).

[1] = system: prefrontal cortical slices; test: eIPSC recording in prefrontal cortical slices; format: cell-based, mice
Protocol: Transverse prefrontal cortical slices (0.3 mm) were prepared from P28-P36 mice using a Vibroslice (Leica VT 10005) in the ice-cold solution, which contained 2.5 mM KCl, 1.25 mM NaH2PO4, 10 mM MgSO4, 0.5 mMCaCl2, 26 mM NaHCO3, 10 mM glucose, and 230 mM sucrose. Slices were allowed to recover for at least 2 hr in ACSF (1 hr at 34° C. followed by 1 hr at 22° C.) in a solution containing 126 mM NaCl, 2.5 mM KCl, 1.25 mM NaH2PO4, 2 mM MgSO4, 2 mM CaCl2, 26 mM NaHCO3, and 10 mM glucose. Slices were placed in the recording chamber and superfused (1.5 ml/min) with ACSF at 34° C. All solutions were saturated with 95% O2/5% CO2. Neurons were visualized with an IR-sensitive CCD camera with a 403 water-immersion lens (Zeiss, Axioskop2 Fsplus) and recorded using whole-cell voltage-clamp techniques (MultiClamp 7008 Amplifier, Digidata 1320A analog-to-digital converter) and pClamp 9.2 software (Axon Instruments). Glass pipettes were filled with the solution containing 125 mM Cs-gluconate, 10 mM CsCl, 1 mM MgCl2, 10 mM HEPES, 1 mM EGTA, 0.1 mM CaCl2, 10 mM sodium phosphocreatine, 4 mM Mg-ATP, 0.3 mM GTP, 0.2 mM leupeptin, and 5 mM lidocaine N-ethylchloride (QX314) (pH 7.2, with the osmolarity adjusted to 280 mOsm with sucrose). The resistance of pipettes was 2-3 MΩ For mIPSC recording, QX314 was omitted in the pipette filling solution, whereas […] was included in the superfusing solution. eIPSCs were generated with a two-concentric bipolar stimulating electrode ([…] pole separation; FHC, ME) positioned about […] from the neuron under recording. Single or paired pulses of 0.2 ms were delivered at 0.1 Hz and synchronized using a Mater-8 stimulator (A.M.P.I). The holding potential for both mIPSCs and eIPSCs was −65 mV. All experiments were done at 34° C. in the presence of 6-cyano-7-nitroquinoxaline-2,3-dione (CNQX, […]) and AP-5 ([…]) to block AMPA/NMDA receptors. Data were collected when series resistance fluctuated within 15% of initial values (8-15 MU), they were filtered at 2 kHz, and they were sampled at 10 kHz.

[2] = substance alone, no other exogenous agent, AG1478/AG879 5 mM [sic]

**Q.** For `COc1cc2ncnc(Nc3cccc(Cl)c3)c2cc1OC` [AG1478], which “depolarization-evoked [3H]GABA release” value (cortical slices; [2]) is on record?
**A.** decreased

**Q.** What about the “NRG1-enhanced evoked GABA release” value (cortical slices; substance given with exogenous NRG1) of the same compound?
**A.** prevented

**Q.** What about the “evoked IPSCs (eIPSCs)” value [1, 2] of the same compound?
**A.** decreased

**Q.** What about the “NRG1 potentiation of eIPSCs” value ([1]; substance given with exogenous NRG1 (5 nM)) of the same compound?
**A.** prevented
